Values quoted from earlier work in patent publication US20220195167A1, “COMPOSITIONS COMPRISING STYRENATED BLOCK COPOLYMER, NON-POLAR OIL AND POLAR OIL” (L'OREAL, priority 2020, published 2022).

| Structure (SMILES) | log P |
| --- | --- |
| CC(C)CCCCCCCOC(=O)C(C)(C)C [Isodecyl neopentanoate] | 6.00 |
| CC(C)CCCCCCCCCCCCCCC(=O)OC(C)C [Isopropyl isostearate] | 9.37 |
| CCCCCCCCCCCCCCCC(=O)OC(C)C [Isopropyl palmitate] | 8.49 |
| CC(C)CCCCCCCCCCCCCCCOC(=O)C(C)(C)C [Isostearyl neopentanoate] | 10.25 |
| CCCCCCCC(=O)OCC(COC(=O)CCCCCCC)OC(=O)CCCCCCC [Tricaprylin] | 9.33 |
